Tests used:
[1] = tested on: normal NK cells expanded with K562-aAPC; experiment: percent inhibition of viability; higher = more inhibition; conditions: 72 h, IL-2 2.5 ng/mL
Description: (§1)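 Drug sensitivity and resistance testing on K562-aAPC-expanded normal NK cells: 5 concentrations (10-fold steps over a 10,000-fold range), 72 h at 37 °C, viability by CellTiter-Glo normalised to DMSO and benzethonium chloride controls; DSS from the fitted curve.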

DERL-7 (IL-2 2.5 ng/mL) [2] = experiment: as above; conditions: 72 h
IMC-1 (IL-2 20 ng/mL) [3] = experiment: as above; conditions: 72 h
KAI3 (IL-2 2.5 ng/mL) [4] = experiment: as above; conditions: 72 h
KHYG-1 (IL-2 2.5 ng/mL) [5] = experiment: as above; conditions: 72 h
NK-92 (IL-2 2.5 ng/mL) [6] = experiment: as above; conditions: 72 h
NK-YS (IL-2 2.5 ng/mL) [7] = experiment: as above; conditions: 72 h
NKL (IL-2 2.5 ng/mL) [8] = experiment: as above; conditions: 72 h
SNK-6 (IL-2 2.5 ng/mL) [9] = experiment: as above; conditions: 72 h
YT (IL-2 2.5 ng/mL) [10] = experiment: as above; conditions: 72 h
[11] = tested on: normal primary NK cells, pool 1 (3 donors) (IL-2 2.5 ng/mL); experiment: as above; conditions: 72 h
[12] = tested on: normal primary NK cells, pool 1 (3 donors), resting (IL-2 0 ng/mL); experiment: as above; conditions: 72 h
[13] = tested on: normal primary NK cells, pool 2 (3 donors) (IL-2 2.5 ng/mL); experiment: as above; conditions: 72 h
[14] = tested on: normal primary NK cells, pool 3 (3 donors) (IL-2 2.5 ng/mL); experiment: as above; conditions: 72 h
[15] = tested on: normal NK cells expanded with K562-aAPC; experiment: drug sensitivity score (DSS) (DSS units); higher = more sensitive; extreme values may be limits of the assay; conditions: 72 h; IL-2 2.5 ng/mL
Description: as §1

DERL-7 (IL-2 2.5 ng/mL) [16] = experiment: as above; conditions: 72 h
IMC-1 (IL-2 20 ng/mL) [17] = experiment: as above; conditions: 72 h
KAI3 (IL-2 2.5 ng/mL) [18] = experiment: as above; conditions: 72 h
KHYG-1 (IL-2 2.5 ng/mL) [19] = experiment: as above; conditions: 72 h
NK-92 (IL-2 2.5 ng/mL) [20] = experiment: as above; conditions: 72 h
NK-YS (IL-2 2.5 ng/mL) [21] = experiment: as above; conditions: 72 h
NKL (IL-2 2.5 ng/mL) [22] = experiment: as above; conditions: 72 h
SNK-6 (IL-2 2.5 ng/mL) [23] = experiment: as above; conditions: 72 h
YT (IL-2 2.5 ng/mL) [24] = experiment: as above; conditions: 72 h
[25] = tested on: normal primary NK cells, pool 1 (3 donors) (IL-2 2.5 ng/mL); experiment: as above; conditions: 72 h
[26] = tested on: normal primary NK cells, pool 1 (3 donors), resting (IL-2 0 ng/mL); experiment: as above; conditions: 72 h
[27] = tested on: normal primary NK cells, pool 2 (3 donors) (IL-2 2.5 ng/mL); experiment: as above; conditions: 72 h
[28] = tested on: normal primary NK cells, pool 3 (3 donors) (IL-2 2.5 ng/mL); experiment: as above; conditions: 72 h

COc1ccc(-c2nc(N3CCOCC3)c3sc(CN(C)c4ncc(C(=O)NO)cn4)cc3n2)cn1 [CUDC-907] (max concentration tested 10000 nM)
percent inhibition of viability [%]
Conditions	1 nM	10 nM	100 nM	1000 nM	10000 nM
DERL-7 (IL-2 2.5 ng/mL) [2]	23.5	99.7	100	100	99.7
IMC-1 (IL-2 20 ng/mL) [3]	-4.89	34.3	100	101	100
KAI3 (IL-2 2.5 ng/mL) [4]	52.6	75.5	102	104	98.9
KHYG-1 (IL-2 2.5 ng/mL) [5]	16.1	94.5	103	103	98.7
NK-92 (IL-2 2.5 ng/mL) [6]	23.2	83.5	102	103	97
NK-YS (IL-2 2.5 ng/mL) [7]	6.56	55.9	101	103	99
NKL (IL-2 2.5 ng/mL) [8]	56.5	77	103	104	99.2
SNK-6 (IL-2 2.5 ng/mL) [9]	0.83	63.5	99.8	100	100
YT (IL-2 2.5 ng/mL) [10]	5.94	27.4	103	104	99.1
[1]	10.6	55.4	100	99.9	99.9
[11]	2.74	68.2	96.4	97.7	97.2
[12]	15.9	72.7	90.1	91	91.7
[13]	1.42	74.2	94.2	94	94.8
[14]	-5.77	56.8	97.2	96.7	98.1

Conditions	drug sensitivity score
DERL-7 (IL-2 2.5 ng/mL) [16]	46.5
IMC-1 (IL-2 20 ng/mL) [17]	35.3
KAI3 (IL-2 2.5 ng/mL) [18]	43.4
KHYG-1 (IL-2 2.5 ng/mL) [19]	44.4
NK-92 (IL-2 2.5 ng/mL) [20]	42.9
NK-YS (IL-2 2.5 ng/mL) [21]	37.1
NKL (IL-2 2.5 ng/mL) [22]	43.8
SNK-6 (IL-2 2.5 ng/mL) [23]	37.9
YT (IL-2 2.5 ng/mL) [24]	34.6
[15]	37.1
[25]	38
[26]	38.4
[27]	37.7
[28]	36.7

Cc1nc(N)sc1-c1ccnc(Nc2ccc(N3CCOCC3)cc2)n1 [CYC-116] (max concentration tested 10000 nM)
percent inhibition of viability [%]
Conditions	1 nM	10 nM	100 nM	1000 nM	10000 nM
DERL-7 (IL-2 2.5 ng/mL) [2]	-3.32	-3.55	6.03	60.9	84.2
IMC-1 (IL-2 20 ng/mL) [3]	-0.53	-4.65	3.54	44.8	83.8
KAI3 (IL-2 2.5 ng/mL) [4]	-1.55	-6.85	1.16	39.8	89.7
KHYG-1 (IL-2 2.5 ng/mL) [5]	-0.11	-0.55	5.34	70.7	106
NK-92 (IL-2 2.5 ng/mL) [6]	-10.5	-10.4	3.17	39.8	72.8
NK-YS (IL-2 2.5 ng/mL) [7]	-2.66	-0.98	6.79	70.6	70.8
NKL (IL-2 2.5 ng/mL) [8]	-16	-8.68	-5.36	42.6	83.9
SNK-6 (IL-2 2.5 ng/mL) [9]	0.9	-6.56	15.3	73.9	72.3
YT (IL-2 2.5 ng/mL) [10]	0.75	1.77	4.66	29.5	94.7
[1]	-2.89	-0.2	2.84	57.5	82
[11]	-7.14	-2.39	-10.8	13.2	71.7
[12]	-4.6	6.4	-9.95	-18.7	23.6
[13]	-11.2	-13.2	-3.79	16.1	68.8
[14]	-12.5	-8.65	4.23	3.35	71.4

Conditions	drug sensitivity score
DERL-7 (IL-2 2.5 ng/mL) [16]	12.4
IMC-1 (IL-2 20 ng/mL) [17]	9.98
KAI3 (IL-2 2.5 ng/mL) [18]	10.1
KHYG-1 (IL-2 2.5 ng/mL) [19]	14.2
NK-92 (IL-2 2.5 ng/mL) [20]	8.76
NK-YS (IL-2 2.5 ng/mL) [21]	14.1
NKL (IL-2 2.5 ng/mL) [22]	9.96
SNK-6 (IL-2 2.5 ng/mL) [23]	16
YT (IL-2 2.5 ng/mL) [24]	9.36
[15]	11.5
[25]	6.12
[26]	0.44
[27]	6.33
[28]	4.4

COc1cc2nccc(Oc3ccc(NC(=O)C4(C(=O)Nc5ccc(F)cc5)CC4)cc3)c2cc1OC [Cabozantinib] (max concentration tested 1000 nM)
percent inhibition of viability [%]
Conditions	0.1 nM	1 nM	10 nM	100 nM	1000 nM
DERL-7 (IL-2 2.5 ng/mL) [2]	4.09	2.17	6.31	-1.21	8.67
IMC-1 (IL-2 20 ng/mL) [3]	-7.19	0.46	1.98	6.03	8.61
KAI3 (IL-2 2.5 ng/mL) [4]	-1.21	2.25	0.33	-5.2	0.09
KHYG-1 (IL-2 2.5 ng/mL) [5]	-1.92	1.46	4.91	3.42	7.82
NK-92 (IL-2 2.5 ng/mL) [6]	1.61	12.2	13.4	2.98	25.1
NK-YS (IL-2 2.5 ng/mL) [7]	-3.98	-1.22	1.67	-2.46	0.65
NKL (IL-2 2.5 ng/mL) [8]	-19	-5.16	-4.38	-6.13	19.2
SNK-6 (IL-2 2.5 ng/mL) [9]	7.18	7.13	10.3	-6.13	-0.11
YT (IL-2 2.5 ng/mL) [10]	-1.79	-0.81	0.31	0.38	11.3
[1]	-0.51	2.22	1.52	13.2	5.74
[11]	-2.72	-8.6	-1.12	-10.1	-9.52
[12]	8.87	-5.07	-5.31	-16.9	11.5
[13]	-8.26	3.55	9.65	-7.89	11.1
[14]	-18.8	-3.79	10.5	-12.7	-3.82

Conditions	drug sensitivity score
DERL-7 (IL-2 2.5 ng/mL) [16]	0
IMC-1 (IL-2 20 ng/mL) [17]	0
KAI3 (IL-2 2.5 ng/mL) [18]	0
KHYG-1 (IL-2 2.5 ng/mL) [19]	0
NK-92 (IL-2 2.5 ng/mL) [20]	1.73
NK-YS (IL-2 2.5 ng/mL) [21]	0
NKL (IL-2 2.5 ng/mL) [22]	0.33
SNK-6 (IL-2 2.5 ng/mL) [23]	0
YT (IL-2 2.5 ng/mL) [24]	0.02
[15]	0
[25]	0
[26]	0.01
[27]	0
[28]	0
